According to US12180474B2, “Methods of treating porphyria” (University of Pittsburgh—Of the Commonwealth System of …, priority 2018, dated 2024):

How the values were obtained:
Assay type in all cases: in vivo
Porcupine (PORCN) [1] = target: T1, Porcupine (PORCN) (Mus musculus, UniProt Q9JJJ7); experiment: Wnt-C59 in WT1/WT2 mice, acute intermittent porphyria model (Example 3); conditions: 30 mg/kg i.p., vs control group
T1 construct: from tissue; host or cells: whole mouse in vivo; liver and serum analysed
T1 sequence (Q9JJJ7 1-461): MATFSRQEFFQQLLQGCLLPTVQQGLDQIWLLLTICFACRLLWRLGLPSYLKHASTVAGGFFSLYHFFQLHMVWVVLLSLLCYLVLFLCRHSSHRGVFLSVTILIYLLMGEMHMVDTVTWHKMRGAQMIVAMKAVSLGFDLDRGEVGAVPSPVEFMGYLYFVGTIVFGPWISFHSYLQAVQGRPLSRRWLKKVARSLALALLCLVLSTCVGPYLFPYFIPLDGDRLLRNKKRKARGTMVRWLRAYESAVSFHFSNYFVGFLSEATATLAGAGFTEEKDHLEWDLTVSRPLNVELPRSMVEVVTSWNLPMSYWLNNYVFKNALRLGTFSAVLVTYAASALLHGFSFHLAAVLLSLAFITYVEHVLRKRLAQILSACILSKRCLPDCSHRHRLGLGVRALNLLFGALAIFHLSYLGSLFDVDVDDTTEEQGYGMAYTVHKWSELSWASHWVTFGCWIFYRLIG

Porcupine (PORCN) [2] = target: T1, Porcupine (PORCN); experiment: Wnt-C59 in DDC-fed CD-1 mice (Example 2); conditions: 30 mg/kg i.p.
Description: Two-month old CD-1 mice were started on a 0.1% DDC diet to induce porphyria. Three days after starting the diet, mice received intraperitoneal (i.p.) injections of 30 mg/kg Porcupine (PORCN) inhibitor Wnt-C59. The Wnt-C59 was delivered on a five days on, two days off schedule for two weeks. Mice were sacrificed 6 hours after the final dose of Wnt-C59. Serum and livers from the control and experimental groups were utilized for IHC, Western blotting, and biochemical assays, as described in Example 1.

Porcupine (PORCN) [3] = target: T1, Porcupine (PORCN); experiment: Wnt-C59, GS and p-mTOR IHC in DDC-fed WT1/WT2 mice (Example 4)
Excerpt: To test the effect of Wnt-C59 on GS and p-mTOR levels, two-month old WT1/WT2 mice were exposed to a DCC diet, as described in Example 1, and received i.p. injections of Wnt-C59, as described in Example 2. Livers from the control and experimental groups were utilized for IHC, as described in Example 1.

[4] = five days on, two days off for two weeks, 0.1% DDC diet

ALA-D mRNA levels (Porcupine (PORCN) [1]): significantly reduced
ALA-S mRNA levels (Porcupine (PORCN) [1]): significantly reduced
glutamine synthetase (GS), β-catenin activity (Porcupine (PORCN) [2]; DDC diet): decrease
porphyrin accumulation (H&E) (Porcupine (PORCN) [2]; DDC diet): decreased
serum ALP (Porcupine (PORCN) [2]; [4]): significantly reduced
serum total bilirubin (Porcupine (PORCN) [2]; [4]): significantly reduced
p-mTOR protein expression (IHC) (Porcupine (PORCN) [3]; DCC diet and Wnt-C59 injection): no expression
GS protein expression (IHC) (Porcupine (PORCN) [3]; DDC diet and Wnt-C59 injection): no expression
Compound: Cc1cc(-c2ccc(CC(=O)Nc3ccc(-c4cccnc4)cc3)cc2)ccn1 [Wnt-C59]
serum ALT (Porcupine (PORCN) [2]; [4]): significantly reduced
serum AST (Porcupine (PORCN) [2]; [4]): significantly reduced
